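In this assay, cells in 96-well plates receive the compound at five concentrations for 48 hours. Endpoints are linearly interpolated between the surrounding concentrations. TGI marks complete inhibition of growth.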
Key:
Experiment in all cases: NCI tumour cell line growth inhibition, 48 h
786-0 renal = system: 786-0 renal
A549 NSCLC = system: A549 NSCLC
ACHN renal = system: ACHN renal
BT-549 breast = system: BT-549 breast
CAKI-1 renal = system: CAKI-1 renal
CCRF-CEM leukemia = system: CCRF-CEM leukemia
COLO 205 colon = system: COLO 205 colon
DU-145 prostate = system: DU-145 prostate
EKVX NSCLC = system: EKVX NSCLC
HCC-2998 colon = system: HCC-2998 colon
HCT-116 colon = system: HCT-116 colon
HCT-15 colon = system: HCT-15 colon
HL-60(TB) leukemia = system: HL-60(TB) leukemia
HOP-62 NSCLC = system: HOP-62 NSCLC
HOP-92 NSCLC = system: HOP-92 NSCLC
HS 578T breast = system: HS 578T breast
HT29 colon = system: HT29 colon
IGROV1 ovarian = system: IGROV1 ovarian
KM12 colon = system: KM12 colon
LOX IMVI melanoma = system: LOX IMVI melanoma
M14 melanoma = system: M14 melanoma
MALME-3M melanoma = system: MALME-3M melanoma
MCF7 breast = system: MCF7 breast
MDA-MB-231 breast = system: MDA-MB-231 breast
MDA-MB-435 = system: MDA-MB-435
MDA-N = system: MDA-N
MOLT-4 leukemia = system: MOLT-4 leukemia
NCI-H226 lung = system: NCI-H226 lung
NCI-H23 lung = system: NCI-H23 lung
NCI-H460 lung = system: NCI-H460 lung
NCI-H522 lung = system: NCI-H522 lung
NCI/ADR-RES ovarian = system: NCI/ADR-RES ovarian
OVCAR-3 ovarian = system: OVCAR-3 ovarian
OVCAR-4 ovarian = system: OVCAR-4 ovarian
OVCAR-5 ovarian = system: OVCAR-5 ovarian
OVCAR-8 ovarian = system: OVCAR-8 ovarian
PC-3 prostate = system: PC-3 prostate
RPMI-8226 leukemia = system: RPMI-8226 leukemia
SF-268 CNS = system: SF-268 CNS
SF-295 CNS = system: SF-295 CNS
SF-539 CNS = system: SF-539 CNS
SK-MEL-2 melanoma = system: SK-MEL-2 melanoma
SK-MEL-28 melanoma = system: SK-MEL-28 melanoma
SK-MEL-5 melanoma = system: SK-MEL-5 melanoma
SK-OV-3 ovarian = system: SK-OV-3 ovarian
SN12C renal = system: SN12C renal
SNB-19 CNS = system: SNB-19 CNS
SNB-75 CNS = system: SNB-75 CNS
SW-620 colon = system: SW-620 colon
T-47D breast = system: T-47D breast
TK-10 renal = system: TK-10 renal
U251 CNS = system: U251 CNS
UACC-257 melanoma = system: UACC-257 melanoma
UACC-62 melanoma = system: UACC-62 melanoma
UO-31 renal = system: UO-31 renal
A498 renal = system: A498 renal
K-562 leukemia = system: K-562 leukemia
RXF 393 renal = system: RXF 393 renal

Measured: TGI

Clc1ccc(C=Nc2ccc(Oc3ccc(Cl)cc3)c(Cl)c2)cc1
63.8 µM: HL-60(TB) leukemia
77.5 µM: UACC-257 melanoma
37.5 µM: HOP-62 NSCLC
82.5 µM: MDA-MB-435
60.5 µM: U251 CNS
36.1 µM: 786-0 renal
35.4 µM: SF-539 CNS
49.2 µM: MALME-3M melanoma
53.3 µM: BT-549 breast
41 µM: HOP-92 NSCLC
52.5 µM: KM12 colon
40.4 µM: OVCAR-3 ovarian
61.5 µM: SK-MEL-28 melanoma
59.1 µM: A549 NSCLC
49.5 µM: SK-MEL-5 melanoma
38.8 µM: MDA-N
55 µM: HT29 colon
47.9 µM: MDA-MB-231 breast
54.2 µM: NCI-H23 lung | SK-MEL-2 melanoma
41.1 µM: SF-268 CNS
52.6 µM: SNB-75 CNS
44.5 µM: NCI-H460 lung
37.7 µM: SF-295 CNS
45.6 µM: HCC-2998 colon
86.2 µM: CAKI-1 renal
41.5 µM: UACC-62 melanoma
56.2 µM: SNB-19 CNS
36.6 µM: SN12C renal
59.7 µM: CCRF-CEM leukemia
24.8 µM: UO-31 renal
50.2 µM: SK-OV-3 ovarian
76.1 µM: OVCAR-4 ovarian
46.9 µM: M14 melanoma
32.3 µM: NCI-H522 lung
36.2 µM: HCT-116 colon
44.2 µM: HCT-15 colon
70.2 µM: EKVX NSCLC
89.8 µM: T-47D breast
39.1 µM: LOX IMVI melanoma
36.5 µM: COLO 205 colon
58.5 µM: NCI/ADR-RES ovarian
69.8 µM: PC-3 prostate
51.4 µM: HS 578T breast
88 µM: MCF7 breast
not listed: A498 renal | K-562 leukemia | RXF 393 renal
> 100 µM: all other assays above

CC(=O)NC1C(OCC(=O)NCCNc2ccc([N+](=O)[O-])c3[nH]c4ccccc4c(=O)c23)C(O)C(CO)OC1(C)OCc1ccccc1 (centres undefined)
not listed: HL-60(TB) leukemia | HOP-92 NSCLC | MALME-3M melanoma | SK-MEL-28 melanoma
> 100 µM: all other assays above

Cn1c(CNc2ccc(-c3n[nH]c(=S)n3C)cc2)n[nH]c1=S
not listed: HS 578T breast | RPMI-8226 leukemia | T-47D breast | UACC-62 melanoma | A498 renal | RXF 393 renal
> 100 µM: all other assays above

Cc1ccc(S(=O)(=O)NCCCCC(N)C(=O)O)cc1 (centres undefined)
not listed: HCC-2998 colon | HL-60(TB) leukemia | LOX IMVI melanoma | SK-MEL-2 melanoma | TK-10 renal
> 100 µM: all other assays above

Reference: PubChem BioAssay (NCI)
